In patent US11634466B2, “Musclin peptides and methods of use thereof” (UNIVERSITY OF IOWA RESEARCH FOUNDATION, priority 2016, dated 2023):

How the values were obtained:
WT and Ostn-KO mice [1] = assay: Voluntary exercise performance on running wheels during musclin infusion; type: in vivo
Description: Whole body composition was obtained by time-domain nuclear magnetic resonance under isoflurane anesthesia (Bruker Minispec; Billerica, Mass.). Osmotic pumps: Osmotic pumps (model 1004, 100 μl volume, 0.11 μl/hr release rate, 28 days duration, Alzet Durect, Cupertino, Calif.), loaded with saline vs. 50 μg of mouse musclin peptide (SFSGFGSPLDRLSAG SVEHRGKQRKAVDHSKKR (SEQ ID NO: 4), corresponding to amino acids 80-112, Gen Bank ID: AAS87598.1, synthesized by Biosynthesis, Lewisville, Tex.) were surgically implanted within the peritoneal cavity of mice under sterile conditions and general anesthesia. Mice recovered for 7 days before exercise testing was performed.
Mice were housed in individual cages with free access to attached running wheels (Columbus Instruments, Columbus, Ohio). Running distance was calculated as 1/6πD·ΣRMPi, where D is wheel diameter and ΣRMPi is sum of averaged RPM values.

WT and Ostn-KO mice [2] = assay: VO2 max / oxygen consumption on metabolic treadmill (indirect calorimetry) after musclin infusion; type: in vivo; conditions: for oxygen consumption, VO2, over time upon initiation of treadmill exercise: 3 weeks of musclin by osmotic pump
Description: Natriuretic peptide/cGMP signaling is increasingly recognized as a key regulator of metabolic homeostasis, including effects on skeletal muscle mitochondrial biogenesis and oxidative phosphorylation potential. Maximal aerobic capacity (VO2 max) is commonly used to estimate overall aerobic fitness based on cardiopulmonary function and oxidative phosphorylation potential. To determine whether musclin production impacts aerobic capacity as a potential mechanism underlying differences in exercise tolerance, exercise-trained Ostn-KO and WT mice were monitored on a metabolic treadmill equipped for indirect calorimetry (Columbus instruments, Columbus Ohio). After 5 days of training, mice were placed on the stationary treadmill for 30 minutes and then were exposed to the protocol of escalating exercise workload to determine their VO2 max. […] To assess this, electron micrographs of longitudinal sections through tibialis anterior of exercised mice were examined and appear to show smaller mitochondrial size in the Ostn-KO compared to WT mice (FIG. 6B). […] Furthermore, disruption of normal musclin signaling appears to impact fiber type composition. Specifically, histologic examination of skeletal muscles from Ostn-KO vs. WT mice indicates a shift towards more pure glycolytic type IIb fibers in the KO (FIGS. 10A-10B). Differences between sedentary WT and Ostn-KO mice were less marked (FIGS. 11A-11G), which were consistent with the findings that exercise augments musclin signaling in the WT mice. […] The pattern of distribution of fiber types from muscles of sedentary WT and Ostn-KO was similar to that of their exercise-trained counterparts, consistent with a slower adaptation of fiber type to exercise, except that there was a slightly more prominent component of type IIA fibers in exercised mice (FIG. 12, n=4 each for tibialis anterior and n=3 each for biceps femoris, *p<0.05).
Whole body composition was obtained by time-domain nuclear magnetic resonance under isoflurane anesthesia (Bruker Minispec; Billerica, Mass.). […]
A multi-lane treadmill (Columbus Instruments, Columbus, Ohio) was used to simultaneously exercise model mice with their controls. […] For indirect calorimetry, oxygen consumption (VO2) and CO2 generation were measured using a two-lane modular treadmill connected to the Oxymax indirect calorimetry system (Columbus Instruments, Inc.). […]

NPRB = target: T1, NPRB (Homo sapiens, UniProt P20594); conditions: background statement; without activating the linked guanylyl cyclase; cited from earlier work
T1 sequence (P20594 23-1047): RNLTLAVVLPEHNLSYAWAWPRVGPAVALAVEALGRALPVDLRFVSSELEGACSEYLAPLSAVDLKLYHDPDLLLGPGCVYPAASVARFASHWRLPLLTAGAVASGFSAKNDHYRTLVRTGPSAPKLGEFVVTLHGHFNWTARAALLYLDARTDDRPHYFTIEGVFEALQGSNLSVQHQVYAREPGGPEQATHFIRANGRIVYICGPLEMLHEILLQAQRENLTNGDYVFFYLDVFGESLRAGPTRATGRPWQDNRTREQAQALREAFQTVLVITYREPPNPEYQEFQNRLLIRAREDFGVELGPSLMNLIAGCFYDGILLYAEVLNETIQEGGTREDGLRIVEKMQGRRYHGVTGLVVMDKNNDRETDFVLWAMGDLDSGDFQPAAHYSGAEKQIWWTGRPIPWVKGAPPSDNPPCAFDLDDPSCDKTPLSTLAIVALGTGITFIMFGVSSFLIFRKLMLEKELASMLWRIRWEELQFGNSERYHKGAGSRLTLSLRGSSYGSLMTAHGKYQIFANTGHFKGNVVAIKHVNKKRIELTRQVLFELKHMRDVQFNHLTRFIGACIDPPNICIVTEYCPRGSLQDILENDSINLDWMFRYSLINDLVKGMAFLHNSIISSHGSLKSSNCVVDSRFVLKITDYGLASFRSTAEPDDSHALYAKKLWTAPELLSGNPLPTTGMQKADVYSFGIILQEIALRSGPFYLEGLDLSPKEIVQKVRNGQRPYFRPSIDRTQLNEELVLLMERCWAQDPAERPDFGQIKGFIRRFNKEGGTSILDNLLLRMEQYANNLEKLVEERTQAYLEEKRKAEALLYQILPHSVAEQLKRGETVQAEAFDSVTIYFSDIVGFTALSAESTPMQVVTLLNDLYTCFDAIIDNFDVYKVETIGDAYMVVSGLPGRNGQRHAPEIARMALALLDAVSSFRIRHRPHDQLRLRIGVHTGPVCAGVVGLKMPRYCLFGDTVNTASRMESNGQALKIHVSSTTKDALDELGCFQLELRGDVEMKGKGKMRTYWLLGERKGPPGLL

[3] = Ostn-KO mice treated with musclin by osmotic pump, night, n=4
[4] = WT mice treated with musclin by osmotic pump, night, n=5

For “H-SFSGFGSPLDRLSAGSVEHRGKQRKAVDHSKKR-OH [musclin]”, the “night-time mean velocity, voluntary running wheel” value (WT and Ostn-KO mice [1]; Ostn-KO mice treated with musclin by osmotic pump, n=4) was 53±15 rotations/5 min, the “distance run, voluntary running wheel” value (WT and Ostn-KO mice [1]; [3]) was 2290±632 meters and the “duration of running, voluntary running wheel” value (WT and Ostn-KO mice [1]; [3]) was 333 ± 53 min. The “distance, voluntary running wheel” value (WT and Ostn-KO mice [1]; [4]) was 2202±280 meters, the “duration, voluntary running wheel” value (WT and Ostn-KO mice [1]; [4]) was 336 ± 39 min and the “mean velocity, voluntary running wheel” value (WT and Ostn-KO mice [1]; [4]) was 51±7 rotations/5 min. For the same substance, the VO2 max (WT and Ostn-KO mice [2]; Ostn-KO mice after 3 weeks of musclin infusion via osmotic pumps, n=3) was 136.6 ± 1.67 mL/min/kg, the “oxygen consumption, VO2, over time upon initiation of treadmill exercise” value (WT and Ostn-KO mice [2]; Ostn-KO mice, vs. WT treated with saline) was “better than WT treated with saline once steady state was achieved” and the VO2 max (WT and Ostn-KO mice [2]; WT mice after 3 weeks of musclin infusion via osmotic pumps, n=4) was 133.9 ± 1.28 mL/min/kg. The “oxygen consumption, VO2, over time upon initiation of treadmill exercise” value (WT and Ostn-KO mice [2]; WT mice, vs. WT mice treated with saline) was “slightly better for several time points” and the “binding to NPRB” value (NPRB) was “weak binding”.
